Earlier results as cited in US12156855B2, “Infusion dosage form of norepinephrine” (Sun Pharmaceutical Industries Limited, priority 2019, dated 2024).

SMILES | reported toxicity (heart, ZHANG Cui-ying et al) | reported pharmacological action (Hans Aaron Bates, J. Org. Chem. 1983)
O=Cc1ccc(O)c(O)c1 [3,4 dihydroxybenzaldehyde, 3,4-dihydroxybenzaldehyde] | toxic to the heart | 
Oc1cc2c(cc1O)C(O)CNC2 (centres unmarked) [impurity of Formula I, 1,2,3,4-tetrahydroisoquinoline-4,6,7-triol] |  | acts as false neurotransmitter
